# Data reported in the RepoRT retention time repository.
# Assay: HILIC, Waters ACQUITY UPLC BEH Amide, 100 × 2.1 mm, 1.7 µm; A: water + 0.125% formic acid + 10 mM ammonium formate; B: 5% water + 95% acetonitrile + 0.125% formic acid + 10 mM ammonium formate; gradient (min/%B) 0/100 2/100 7.7/70 9.5/40 10.25/30 12.75/100 17/100
# Settings: stereoisomer not certain
row,SMILES,LC retention time [min]
1,CC#CC1(O)CCC2C3CCC4=CC(=O)CCC4=C3C(c3ccc(N(C)C)cc3)CC21C (stereo not drawn) [Mifepristone],1
2,OCCN1CC(O)C(O)C(O)C1CO (stereo not drawn) [Miglitol],8.12
3,CCN(CC)C(=O)C1(c2ccccc2)CC1CN (stereo not drawn) [Milnacipran],3.23
4,Cc1[nH]c(=O)c(C#N)cc1-c1ccncc1 [Milrinone],1.6
5,CN1CCN2c3ncccc3Cc3ccccc3C2C1 (stereo not drawn) [Mirtazapine],3.08
6,O=C(NCCN1CCOCC1)c1ccc(Cl)cc1 [Moclobemide],2.03
7,NC(=O)CS(=O)C(c1ccccc1)c1ccccc1 (stereo not drawn) [Modafinil],1.27
8,CCCCCCCCC=CCCCCCCCC(=O)OCC(O)CO (stereo not drawn) [Monoolein],1.19
9,CCOc1cc(N)c(Cl)cc1C(=O)NCC1CN(Cc2ccc(F)cc2)CCO1 (stereo not drawn) [Mosapride],1.24
10,COc1c(N2CC3CCCNC3C2)c(F)cc2c(=O)c(C(=O)O)cn(C3CC3)c12 (stereo not drawn) [Moxifloxacin],4.69
11,COc1nc(C)nc(Cl)c1NC1=NCCN1 [Moxonidine],3.28
12,CC(OC1C(N)C(O)OC(CO)C1O)C(=O)O (stereo not drawn) [Muramic acid],8.28
13,"CN(C)c1nc2c(ncn2C2OC(CO)C(O)C2O)c(=O)[nH]1 (stereo not drawn) [N2,N2-Dimethylguanosine]",5.62
14,CNc1nc2c(ncn2C2OC(CO)C(O)C2O)c(=O)[nH]1 (stereo not drawn) [N2-Methylguanosine],6.4
15,CC(C)=CCNc1ncnc2c1ncn2C1OC(CO)C(O)C1O (stereo not drawn) [N6-Isopentenyladenosine],1.48
16,CC(=O)NCCCCNCCCN [N8-Acetylspermidine],8.87
17,"CN(C)C(CCCN=C(N)N)C(=O)O (stereo not drawn) [N,N-Dimethylarginine]",9.1
18,"CN(C)C=O [N,N-Dimethylformamide]",1.29
19,"CN(C)CC(=O)O [N,N-Dimethylglycine]",7.4

row,SMILES,LC retention time [min]
1,CC(=O)Nc1ccc2c(c1)Cc1ccccc1-2 [N-2-Fluorenylacetamide],4.74
2,OCC1OC(n2cnc3c(NC4CCCC4O)ncnc32)C(O)C1O (stereo not drawn) [N-2-Hydroxycyclopentyladenosine],3.48
3,O=C(O)CNC(=O)c1ccco1 [N-(2-Furoyl)glycine],4.01
4,CC(=O)NC(CCCN=C(N)N)C(=O)O [N-.alpha.-Acetyl-L-arginine],8.16
5,CC(=O)NCCc1c[nH]c2ccc(O)cc12 [N-Acetyl-5-hydroxytryptamine],1.43
6,CC(=O)NC(CC(=O)O)C(=O)NC(CCC(=O)O)C(=O)O (stereo not drawn) [N-Acetyl-Asp-Glu],8.11
7,CC(=O)NCCC(=O)NC(Cc1cnc[nH]1)C(=O)O [N-Acetyl-L-carnosine],8.35
8,CC(=O)N[C@@H](CCC(N)=O)C(=O)O [N-Acetyl-L-glutamine],8.18
9,CC(=O)NC(C)C(=O)O (stereo not drawn) [N-Acetylalanine],4.83
10,CC(=O)N1CCCCCC1=O [N-Acetylcaprolactam],2.3
11,CC(=O)NC(CS)C(=O)O (stereo not drawn) [N-Acetylcysteine],5.28
12,CC(=O)Nc1ccn(C2OC(CO)C(O)C2O)c(=O)n1 (stereo not drawn) [N-Acetylcytidine],5.08
13,CC(=O)NC(CCC(=O)O)C(=O)O (stereo not drawn) [N-Acetylglutamic acid],7.67
14,CC(=O)NC(Cc1cnc[nH]1)C(=O)O (stereo not drawn) [N-Acetylhistidine],8.07
15,CC(=O)NC(CC(C)C)C(=O)O (stereo not drawn) [N-Acetylleucine],2.29
16,CC(=O)NC1C(O)OC(CO)C(O)C1O (stereo not drawn) [N-Acetylmannosamine],7.01
17,CSCCC(NC(C)=O)C(=O)O (stereo not drawn) [N-Acetylmethionine],3.23
18,CC(=O)NC1C(O)CC(O)(C(=O)O)OC1C(O)C(O)CO (stereo not drawn) [N-Acetylneuraminic acid],9.26
19,CC(=O)NC(Cc1ccccc1)C(=O)O (stereo not drawn) [N-Acetylphenylalanine],2.61

row,SMILES,LC retention time [min]
1,CC(=O)NC(CO)C(=O)O (stereo not drawn) [N-Acetylserine],7.67
2,CC(=O)NC(Cc1c[nH]c2ccccc12)C(=O)O (stereo not drawn) [N-Acetyltryptophan],2.81
3,O=C(O)CNC(=O)OCc1ccccc1 [N-Benzyloxycarbonylglycine],7.67
4,CC(C)CC(NC(=O)OCc1ccccc1)C(=O)O (stereo not drawn) [N-Carbobenzyloxyleucine],1.28
5,O=C(O)CNC(=O)C=Cc1ccccc1 [N-Cinnamoylglycine],2.95
6,O=CNC1CCCCC1 [N-Cyclohexylformamide],1.2
7,CSCCC(NC=O)C(=O)O (stereo not drawn) [N-Formylmethionine],3.93
8,CC(C)C(=O)NCC(=O)O [N-Isobutyrylglycine],3.6
9,CC(C)CC(=O)NCC(=O)O [N-Isovalerylglycine],2.94
10,CNc1ccccc1 [N-Methylaniline],1.06
11,CNc1ccccc1C(=O)O [N-Methylanthranilic acid],1.22
12,CN1CCC(c2ccc(F)cc2)C(COc2ccc3c(c2)OCO3)C1 (stereo not drawn) [N-Methylparoxetine],2.2
13,CNCCc1cnc[nH]1 [N-alpha-methylhistamine],7.48
14,Oc1ccc2c3c1OC1C(O)CCC4(O)C(C2)N(CC2CCC2)CCC314 (stereo not drawn) [Nalbuphine],5.25
15,Oc1ccc2c3c1OC1c4[nH]c5ccccc5c4CC4(O)C(C2)N(CC2CC2)CCC314 (stereo not drawn) [Naltrindole],4.45
16,CC12CCC3C4CCC(=O)C=C4CCC3C1CCC2O (stereo not drawn) [Nandrolone],1.06
17,O=C(O)CNC(=O)c1cccnc1 [Nicotinoylglycine],7.08
18,CN1C(=O)CN=C(c2ccccc2)c2cc([N+](=O)[O-])ccc21 [Nimetazepam],0.98
19,O=C1CN=C(c2ccccc2)c2cc([N+](=O)[O-])ccc2N1 [Nitrazepam],1.2

# Other lines, results leading:
row,LC retention time [min],SMILES
1,7.67,CNC(C)C(=O)O (stereo not drawn) [N-Methylalanine]
2,2.53,CNC(CC(=O)O)C(=O)O (stereo not drawn) [N-Methylaspartic acid]
3,6.44,CCC(C)C(NC)C(=O)O (stereo not drawn) [N-Methylisoleucine]
4,6.45,CNC(CC(C)C)C(=O)O (stereo not drawn) [N-Methylleucine]
5,9.36,CNCCCCC(N)C(=O)O (stereo not drawn) [N-Methyllysine]
6,6.22,CNC(Cc1ccccc1)C(=O)O (stereo not drawn) [N-Methylphenylalanine]
7,7.11,CN1CCCC1C(=O)O (stereo not drawn) [N-Methylproline]
8,7.68,CNC(C(=O)O)C(C)O (stereo not drawn) [N-Methylthreonine]
9,6.79,CNC(Cc1ccc(O)cc1)C(=O)O (stereo not drawn) [N-Methyltyrosine]
10,6.99,CNC(C(=O)O)C(C)C (stereo not drawn) [N-Methylvaline]
11,8.31,CC(=O)NC(CCCN)C(=O)O [N-alpha-Acetyl-L-ornithine]
12,8.03,CC(=O)NCCCCC(N)C(=O)O (stereo not drawn) [N-epsilon-Acetyllysine]
13,1.32,COc1ccc(NC=O)c(C(=O)CCNC(C)=O)c1 [N-gamma-Acetyl-N-2-formyl-5-methoxykynurenamine]
14,6,CC(=O)NCCc1cnc[nH]1 [N-omega-Acetylhistamine]
15,8.15,CC(=O)N[C@@H](CCCCN)C(=O)O [N.alpha.-Acetyl-L-lysine]
16,7.35,CN[C@@H](CCCCN)C(=O)O [N.alpha.-Methyl-L-lysine]
17,9.29,"C[N+](C)(C)CCCCC(N)C(=O)[O-] (stereo not drawn) [NEPSILON,NEPSILON,NEPSILON-TRIMETHYLLYSINE]"
18,2.05,CCCCN1CCCC1CNC(=O)c1cc(C#N)c2ccccc2c1OC (stereo not drawn) [Nafadotride]

row,LC retention time [min],SMILES
1,1.99,COc1ccccc1N1CCN(CC(O)COc2cccc3ccccc23)CC1 (stereo not drawn) [Naftopidil]
2,5.61,CC1OC(OC2C(Oc3cc(O)c4c(c3)OC(c3ccc(O)cc3)CC4=O)OC(CO)C(O)C2O)C(O)C(O)C1O (stereo not drawn) [Naringin]
3,1.3,CC(C)C1CCC(C(=O)NC(Cc2ccccc2)C(=O)O)CC1 (stereo not drawn) [Nateglinide]
4,1.88,CCc1nn(CCCN2CCN(c3cccc(Cl)c3)CC2)c(=O)n1CCOc1ccccc1 [Nefazodone]
5,1.55,Cc1c(O)cccc1C(=O)NC(CSc1ccccc1)C(O)CN1CC2CCCCC2CC1C(=O)NC(C)(C)C (stereo not drawn) [Nelfinavir]
6,0.99,CC(=O)OCC=C(C)CCC=C(C)C [Nerylacetate]
7,1.69,O=C(CCNNC(=O)c1ccncc1)NCc1ccccc1 [Nialamide]
8,1.11,O=C(NCCO[N+](=O)[O-])c1cccnc1 [Nicorandil]
9,7.51,NC(=O)c1ccc[n+](C2OC(CO)C(O)C2O)c1 (stereo not drawn) [Nicotinamide riboside cation]
10,1.7,NC(=O)c1cccnc1 [Nicotinamide]
11,5.34,CN1CCCC1c1cccnc1 (stereo not drawn) [Nicotine]
12,4.01,O=C(O)c1cccnc1 [Nicotinic acid]
13,1.02,COC(=O)C1=C(C)NC(C)=C(C(=O)OC)C1c1ccccc1[N+](=O)[O-] [Nifedipine]
14,3.21,Cn1c(NCCN(CCO)CCCc2ccc([N+](=O)[O-])cc2)cc(=O)n(C)c1=O [Nifekalant]
15,0.94,COCCOC(=O)C1=C(C)NC(C)=C(C(=O)OC(C)C)C1c1cccc([N+](=O)[O-])c1 (stereo not drawn) [Nimodipine]
16,1,CC(=O)Oc1ccccc1C(=O)Nc1ncc([N+](=O)[O-])s1 [Nitazoxanide]
17,0.95,CCOC(=O)C1=C(C)NC(C)=C(C(=O)OC)C1c1cccc([N+](=O)[O-])c1 (stereo not drawn) [Nitrendipine]
18,4.65,CNC(=C[N+](=O)[O-])NCCSCc1csc(CN(C)C)n1 [Nizatidine]
